{"source": "patent US20080194551A1", "about": "“Acetylene Derivatives” (priority 2005, published 2008)", "key": {"hmGluR5": {"target": "T1, hmGluR5 (Homo sapiens, UniProt P41594)", "T1 construct": "expressed in transfected cells", "T1 sequence (P41594 21-1180 isoform P41594-2 limits assumed)": "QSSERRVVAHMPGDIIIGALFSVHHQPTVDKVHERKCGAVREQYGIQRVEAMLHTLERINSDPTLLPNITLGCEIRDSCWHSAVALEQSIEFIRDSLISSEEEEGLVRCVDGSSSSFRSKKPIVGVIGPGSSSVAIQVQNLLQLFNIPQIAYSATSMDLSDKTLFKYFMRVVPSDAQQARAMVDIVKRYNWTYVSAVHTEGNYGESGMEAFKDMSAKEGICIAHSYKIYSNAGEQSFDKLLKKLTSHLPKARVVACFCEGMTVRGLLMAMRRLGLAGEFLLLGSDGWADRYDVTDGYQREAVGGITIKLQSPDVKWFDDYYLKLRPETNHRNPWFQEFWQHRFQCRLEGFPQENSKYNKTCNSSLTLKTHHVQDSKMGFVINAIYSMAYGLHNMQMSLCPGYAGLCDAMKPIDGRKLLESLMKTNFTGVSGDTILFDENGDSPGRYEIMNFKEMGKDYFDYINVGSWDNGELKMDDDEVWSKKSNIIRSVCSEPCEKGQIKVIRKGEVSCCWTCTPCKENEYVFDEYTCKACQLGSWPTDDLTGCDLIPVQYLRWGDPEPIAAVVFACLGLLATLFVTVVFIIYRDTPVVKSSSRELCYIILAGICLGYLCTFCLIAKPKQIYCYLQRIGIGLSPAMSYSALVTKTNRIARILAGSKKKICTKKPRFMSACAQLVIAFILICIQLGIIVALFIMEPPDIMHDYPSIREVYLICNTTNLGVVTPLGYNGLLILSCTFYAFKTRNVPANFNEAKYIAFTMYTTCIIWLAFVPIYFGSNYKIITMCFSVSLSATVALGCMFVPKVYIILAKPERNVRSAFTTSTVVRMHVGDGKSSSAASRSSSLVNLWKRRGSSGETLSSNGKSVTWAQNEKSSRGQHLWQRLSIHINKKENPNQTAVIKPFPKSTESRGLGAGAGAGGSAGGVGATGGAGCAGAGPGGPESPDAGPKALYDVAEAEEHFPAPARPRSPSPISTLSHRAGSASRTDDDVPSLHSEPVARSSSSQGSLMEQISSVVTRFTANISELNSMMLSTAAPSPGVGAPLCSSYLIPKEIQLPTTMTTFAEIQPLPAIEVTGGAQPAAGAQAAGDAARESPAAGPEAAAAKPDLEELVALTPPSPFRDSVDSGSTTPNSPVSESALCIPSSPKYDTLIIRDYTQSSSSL", "test": "Inhibition of quisqualate-induced inositol phosphate turnover in hmGluR5 expressing cells", "assay_type": "cell-based", "conditions": "agonist quisqualate, read-out: IC50 concentration, inhibition of quisqualate-induced inositol phosphate turnover", "source_text": "This can be determined in vitro for example at recombinant human metabotropic glutamate receptors, especially PLC-coupled subtypes thereof such as mGluR5, using different procedures like, for example, measurement of the inhibition of the agonist induced elevation of intracellular Ca^2+ concentration in accordance with L. P. Daggett et al., Neuropharm. Vol. 34, pages 871-886 (1995), P. J. Flor et al., J. Neurochem. Vol. 67, pages 58-63 (1996) or by determination to what extent the agonist induced elevation of the inositol phosphate turnover is inhibited as described by T. Knoepfel et al., Eur. J. Pharmacol. Vol. 288, pages 389-392 (1994), L. P. Daggett et al., Neuropharm. Vol. 67, pages 58-63 (1996) and references cited therein. Isolation and expression of human mGluR subtypes are described in U.S. Pat. No. 5,521,297. Selected agents of the invention show IC50 values for the inhibition of the agonist (e.g. glutamate or quisqualate) induced elevation of intracellular Ca2+ concentration or the agonist (e.g. glutamate or quisqualate) induced inositol phosphate turnover, measured in recombinant cells expressing hmGluR5a of about 1 nM to about 50 μM.\n4-(3-Chloro-phenylamino)-1-(3-chloro-phenylethynyl)-cyclohexanol inhibits the quisqualate-induced inositol phosphate turnover in hmGluR5 expressing cells with an IC50 concentration of 4000 nM."}}, "note": "pIC50: −log10 of the molar value."}
{"smiles": "OC1(C#Cc2cccc(Cl)c2)CCC(Nc2cccc(Cl)c2)CC1", "note": "(centres unmarked) [Example 2.2, 4-(3-Chloro-phenylamino)-1-(3-chloro-phenylethynyl)-cyclohexanol]", "values": [{"measurement": "pIC50", "setting": "hmGluR5", "result": 5.40}]}
{"smiles": "OC1(C#Cc2cccc(Cl)c2)CCC(Nc2cc(Cl)cc(Cl)c2)CC1", "note": "(centres unmarked) [Example 2.6, 4-(3,5-Dichloro-phenylamino)-1-(3-chloro-phenylethynyl)-cyclohexanol]", "values": [{"measurement": "melting point", "result": "145 to 149", "unit": "°C"}]}
